Experimental data reported in US20050090522A1 (priority 2001, published 2005).
Where two headings read alike, the source gives them in different places.

How the values were obtained:
[1] = tested on: HIV-1; assay: HIV-1 single-round infectious luciferase reporter virus (pseudotype) assay in HeLa CD4 CCR5 cells; format: cell-based
Outline: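 HeLa CD4 CCR5 cells (5×10^4/well, DMEM + 10% FBS) were treated with compound (final <10 μM) and infected with single-round luciferase reporter virus made in 293 cells, at MOI ~0.01. Luciferase was read 72 h post infection. EC50 came from 10-concentration percent-inhibition curves fitted to a four-parameter logistic model.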

[2] = Metabolic stability in pooled human liver microsomes (HLM); conditions: 3 μM drug
Description: Metabolic Stability Studies of compounds in Liver Microsomes. The metabolic stability of compounds were investigated in pooled liver microsomes from humans. The human liver microsomes were obtained from BD Gentest (Lot #16, Woburn, Mass.) with a protein concentration of 20 mg/ml and a total cytochrome P450 (CYP) concentration of 0.55 nmol/mg protein. A stock solution of drug was prepared in acetonitrile at 1 mM. […] The incubation media consisted of potassium phosphate buffer (0.1 M, pH 7.4), liver microsomes (final concentration 0.9 mg/ml), magnesium chloride (0.033 mM), and a NADPH-regenerating system. […] The test compound was pre-incubated in the media for 2 min. The reaction was initiated by the addition of the cofactors. The incubation was carried out at 37° C. for 10 min. The reaction was terminated by drawing an aliquot of 100 μL from the incubation and adding into 200 μL of acetonitrile containing a reference compound as an […] analytical standard. Following vortex-mixing and centrifugation, an aliquot of 10 μL of the supernatant was analyzed by LC/MS.
GUIDELINES can be used to categorized test substances as low, intermediate or highly cleared compounds.
(§1) For accuracy, the determined measure of viral inhibition is an EC50; but the minimum plasma concentrations which should be maintained in a patient is generally believed to be at least four or five fold higher. […] Lower is better. • 4) Estimating potential exposure in man by measuring parameters such as AUC and rate of clearance by oral and iv dosing in rats. High exposure and low clearance was desired.
The stability of compounds were also evaluated to determine metabolic stability when incubated in in vitro preparations of human liver microsomes (HLM). This is one commonly used predictive system for evaluating the potential for human metabolism and projecting clearance rates in man. Compounds with low clearance rates were most desireable.

[3] = tested on: HeLa cells; assay: Cytotoxicity assay in HeLa cells (MTT dye reduction, CC50)
Description: • Virus production—Human embryonic Kidney cell line, 293, propagated in Dulbecco's Modified Eagle Medium (Life Technologies, Gaithersburg, Md.) containing 10% fetal Bovine serum (FBS, Sigma, St. Louis, Mo.). • Virus infection—Human epithelial cell line, HeLa, expressing the HIV-1 receptors CD4 and CCR^5 was propagated in Dulbecco's Modified Eagle Medium (Life Technologies, Gaithersburg, Md.) containing 10% fetal Bovine serum (FBS, Sigma, St. Louis, Mo.) and supplemented with 0.2 mg/mL Geneticin (Life Technologies, Gaithersburg, Md.) and 0.4 mg/mL Zeocin (Invitrogen, Carlsbad, Calif.). […] Transfections were performed using lipofectAMINE PLUS reagent as described by the manufacturer (Life Technologies, Gaithersburg, Md.). Experiment • 1. Compound was added to HeLa CD4 CCR5 cells plated in 96 well plates at a cell density of 5×10^4 cells per well in 100 μl Dulbecco's Modified Eagle Medium containing 10% fetal Bovine serum at a concentration of […]. • 2. 100 μl of single-round infectious reporter virus in Dulbecco's Modified Eagle Medium was then added to the plated cells and compound at an approximate multiplicity of infection (MOI) of 0.01, resulting in a final volume of 200 μl per well and a final compound concentration of <10 μM. • 3. Samples were harvested 72 h after infection. • 4. Viral infection was monitored by measuring luciferase expression from viral DNA in the infected cells using a luciferase reporter gene assay kit (Roche Molecular Biochemicals, Indianapolis, Ind.). Infected cell supernatants were removed and 50 μl of Dulbecco's Modified Eagle Medium (without phenol red) and 50 μl of luciferase assay reagent reconstituted as described by the manufacturer (Roche Molecular Biochemicals, Indianapolis, Ind.) was added per well. Luciferase activity was then quantified by measuring luminescence using a Wallac microbeta scintillation counter. • 5. […] An EC50 provides a method for comparing the antiviral potency of the compounds of this invention. The effective concentration for fifty percent inhibition (EC50) was calculated with the Microsoft Excel Xlfit curve fitting software. For each compound, curves were generated from percent inhibition calculated at 10 different concentrations by using a four paramenter logistic model (model 205). Table 1 is the key for the data in Tables 2-4. Cytoxicity assays were conducted with the same HeLa using methodology well known in the art.
as §1

[4] = Human immunodeficiency virus 1, HeLa-CD4/CCR5, read-out: EC50 Group from TABLE 1, HeLa CD4 CCR5 cells, single-round infectious luciferase reporter virus
[5] = Human immunodeficiency virus 1, HeLa-CD4/CCR5, read-out: EC50 category, HIV-1 single-round reporter virus assay, category 1/2/3 per Table A1 key
[6] = pooled human liver microsomes, Low/Intermediate/High
[7] = cytotoxicity, Yes = CC50 above 100 uM, No = not
[8] = Human immunodeficiency virus 1, HeLa-CD4/CCR5, read-out: EC50 Group from Table 1, Table 4, HeLa CD4 CCR5 cells, single-round luciferase reporter virus
[9] = Human immunodeficiency virus 1, HeLa-CD4/CCR5, read-out: EC50 Group from Table 1, Table 2-1, HeLa CD4 CCR5 cells, single-round luciferase reporter virus

| SMILES | EC50 [1, 4] | EC50 [1, 5] | HLM predicted human clearance class [2, 6] | CC50 > 100 uM [3, 7] | EC50 [1, 8] | EC50 ([1]; Human immunodeficiency virus 1, HeLa-CD4/CCR5, read-out: EC50 category, initial pseudotype assay, key in Table A1) | HLM predicted human clearance class ([2]; 0.9 mg/ml microsomes, 37° C., 10 min) | CC50 > 100 uM ([3]; HeLa cells, six days with drug, MTT) | EC50 [1, 9] |
| --- | --- | --- | --- | --- | --- | --- | --- | --- | --- |
| COc1cnc(-c2cnc(NC(C)=O)s2)c2[nH]cc(C(=O)C(=O)N3CCN(C(=O)c4ccccc4)CC3)c12 [Example 78, 1-benzoyl-4-[(4-methoxy-7-(2-acetylamino-thiazol-5-yl)-6-azaindol-3-yl)-oxoacetyl]piperazine] | < 1000 nM | 0.2 to 1000 nM | Intermediate (0.101-0.200) | Yes |  |  |  |  |  |
| COc1cnc(-n2cc(C)nn2)c2[nH]cc(C(=O)C(=O)N3CCN(C(=O)c4ccccc4)CC3)c12 [Example 325] | < 1000 nM | < 0.2 nM | Low (0-0.100) | Yes |  |  |  |  |  |
| O=C(C(=O)N1CCN(C(=O)c2ccccc2)CC1)c1c[nH]c2c(-c3ncon3)ncc(F)c12 [Example 146] | < 1000 nM | 0.2 to 1000 nM | Intermediate (0.101-0.200) | Yes |  |  |  |  |  |
| C[C@@H]1CN(C(=O)c2ccccc2)CCN1C(=O)C(=O)c1c[nH]c2c(-n3cccn3)ncc(Br)c12 [Example 139] | < 1000 nM | 0.2 to 1000 nM | High (0.201-0.300) | Yes |  |  |  |  |  |
| O=C(C(=O)N1CCN(C(=O)c2ccccc2)CC1)c1c[nH]c2c(-n3cncn3)ccnc12 [Example 207, 1-(4-benzoyl-piperazin-1-yl)-2-(7-[1,2,4]triazol-1-yl-1H-pyrrolo[3,2-b]pyridin-3-yl)-ethane-1,2-dione] |  | 0.2 to 1000 nM | Low (0-0.100) | Yes | < 1000 nM |  |  |  |  |
| COc1cnc(-n2ncc(C)n2)c2[nH]cc(C(=O)C(=O)N3CCN(C(=O)c4ccccc4)CC3)c12 [Example 327] | < 1000 nM |  |  |  |  | 0.2 to 1000 nM | Low (0-0.100) | Yes |  |
| COCc1ncn(-c2ncc(OC)c3c(C(=O)C(=O)N4CCN(C(=O)c5ccccc5)[C@H](C)C4)c[nH]c23)n1 [Example 324] |  | < 0.2 nM | Low (0-0.100) | Yes |  |  |  |  | < 1000 nM |
| COc1cnc(-n2ccc(N)n2)c2[nH]cc(C(=O)C(=O)N3CCN(C(=O)c4ccccc4)CC3)c12 [Example 251, 1-benzoyl-4-[(4-methoxy-7-(3-amino-pyrazol-1-yl)-6-azaindol-3-yl)-oxoacetyl]piperazine] | < 1000 nM | < 0.2 nM | Low (0-0.100) | Yes |  |  |  |  |  |
| Cc1ncn(-c2ncc(F)c3c(C(=O)C(=O)N4CCN(C(=O)c5ccccc5)[C@H](C)C4)c[nH]c23)n1 [Example 315] |  | < 0.2 nM | Low (0-0.100) | Yes |  |  |  |  | < 1000 nM |
| O=C(C(=O)N1CCN(C(=O)c2ccccc2)CC1)c1c[nH]c2c(-c3cn(-c4ccccc4)nn3)ccnc12 [Example 161] |  | < 0.2 nM | High (0.201-0.300) | Yes | < 1000 nM |  |  |  |  |
| COc1cnc(-c2nccs2)c2[nH]cc(C(=O)C(=O)N3CCN(C(=O)c4ccccc4)CC3)c12 [Example 35, 1-(benzoyl)-4-[(4-methoxy-7-(thiazol-2-yl)-6-azaindol-3-yl)-oxoacetyl]piperazine] | < 1000 nM | < 0.2 nM | Intermediate (0.101-0.200) | Yes |  |  |  |  |  |
| CNC(=O)c1ncn(-c2ncc(OC)c3c(C(=O)C(=O)N4CCN(C(=O)c5ccccc5)CC4)c[nH]c23)n1 [Example 274, 1-benzoyl-4-[(4-rnethoxy-7-(3-methylaminocarbonyl-1,2,4-triazol-1-yl)-6-azaindol-3-yl)-oxoacetyl]piperazine] | < 1000 nM | < 0.2 nM | Low (0-0.100) | Yes |  |  |  |  |  |
| COc1cnc(-c2cncs2)c2[nH]cc(C(=O)C(=O)N3CCN(C(=O)c4ccccc4)CC3)c12 [Example 71, 1-benzoyl-4-[(4-methoxy-7-(thioazol-5-yl)-6-azaindol-3-yl)-oxoacetyl]piperazine] | < 1000 nM | < 0.2 nM | Intermediate (0.101-0.200) | Yes |  |  |  |  |  |
| COc1cnc(-c2ccco2)c2[nH]cc(C(=O)C(=O)N3CCN(C(=O)c4ccccc4)CC3)c12 [Example 73, 1-(benzoyl)-4-[(4-methoxy-7-(furan-2-yl)-6-azaindol-3-yl)-oxoacetyl]piperazine] | < 1000 nM | < 0.2 nM | Intermediate (0.101-0.200) | Yes |  |  |  |  |  |
| CCc1ccn(-c2ncc(OC)c3c(C(=O)C(=O)N4CCN(C(=O)c5ccccc5)[C@H](C)C4)c[nH]c23)n1 [Example 230, (R)-1-benzoyl-2-methyl-4-[(4-methoxy-7-(3-ethyl-pyrazol-1-yl)-6-azaindol-3-yl)-oxoacetyl]piperazine] |  | < 0.2 nM | Intermediate (0.101-0.200) | Yes |  |  |  |  | < 1000 nM |
| COc1cnc(-n2cnc(C(=O)N(C)C)n2)c2[nH]cc(C(=O)C(=O)N3CCN(C(=O)c4ccccc4)CC3)c12 [Example 275, 1-benzoyl-4-[(4-methoxy-7-(3-dimethylaminocarbonyl-1,2,4-triazol-1-yl)-6-azaindol-3-yl)-oxoacetyl]piperazine] | < 1000 nM | < 0.2 nM | Low (0-0.100) | Yes |  |  |  |  |  |
| COc1cnc(-n2cnc(N)n2)c2[nH]cc(C(=O)C(=O)N3CCN(C(=O)c4ccccc4)[C@H](C)C3)c12 [Example 258, (R)-1-benzoyl-2-methyl-4-[(4-methoxy-7-(3-amino-1,2,4-triazol-1-yl)-6-azaindol-3-yl)-oxoacetyl]piperazine] |  | < 0.2 nM | Low (0-0.100) | Yes |  |  |  |  | < 1000 nM |
| O=C(C(=O)N1CCN(C(=O)c2ccccc2)CC1)c1c[nH]c2c(-c3cncnc3)ncc(F)c12 [Example 42, 1-benzoyl-4-[(4-fluoro-7-(pydin-5-yl)-6-azaindol-3-yl)-oxoacetyl]piperazine] | < 1000 nM | 0.2 to 1000 nM | Low (0-0.100) | Yes |  |  |  |  |  |
| C[C@@H]1CN(C(=O)C(=O)c2c[nH]c3c(-n4ccnn4)ncc(F)c23)CCN1C(=O)c1ccccc1 [Example 314] |  | < 0.2 nM | Low (0-0.100) | Yes |  |  |  |  | < 1000 nM |
